Reference: patent US5183826A, “Antiviral agent” (Merck & Co., Inc., priority 1990, dated 1993)

Experiments:
HIV protease = biological target: T1, HIV protease (Human immunodeficiency virus type 1 group M subtype B, UniProt P12497); assay: HIV protease inhibition: cleavage of radiolabelled synthetic peptide substrate (beta-naphthylalanine-proline bond); assay type: biochemical; conditions: for Disintegrations/Minute: Blank 236, Total (Control) 4497
T1 construct: ability of a HIV protease to cleave the peptide bond
Source text: The HIV protease inhibitor activity may be seen in an assay to test the presence of a compound which affects the ability of a HIV protease to cleave the peptide bond between β-naphthylalanine and proline. A suitable substrate is ^3 H β-casein. However, a synthetic peptide containing the β-naphthylalanine and proline link gives more consistent results and one especially preferred is a peptide which is radioactively labelled at one terminus and arginine substituted at the other terminus thereby allowing the basic end to be bound to a cation exchange resin and the cleaved labelled fragment to be found in the eluate.
In a representative assay, 25 μl of a dilute peptide substrate solution containing 0.5 μl of the substrate in a 100 mM sodium acetate buffer was added to an assay tube containing (a) 45 μl of 111 mM sodium acetate buffer, (b) 25 μl of a diluted protease solution containing 0.4% bovine serum albumin (BSA) and (c) 5 μl of a solution containing from 0.63 to 210 μM of Compound I, or to blank tubes containing 25 μl of 100 mM sodium acetate plus 0.4 percent BSA, 45 μl of 111 mM sodium acetate buffer and 5 μl of dimethyl sulfoxide (DMSO) (99 vols. DMSO plus 1 vol 100 mM tris(hydroxymethyl)aminomethane (TRIS·HCl), pH 7.5). In the tubes, the concentration of the protease solution is 2.0 nM. The assay tubes are then incubated for 37° C. for 60 minutes and the reaction then quenched with 100 μl of 5% H3 PO4.
150 microliters of the reaction mixture was placed on a cation exchange column (Dowex AG-50W-X8, Dow Chemical Company) and the column then washed with 1.85 milliliters of water and the effluents collected in scintillation vials. 7-10 milliliters of scintillation cocktails were added to each vial, the vials vortexed vigorously, then placed in the scintillation counter and counted using the tritium channel. The results were as follows:
The percent inhibition was obtained by the following calculation: [formula]

[1] = system: platelet activating factor; assay: assay for platelet activating factor
proteases = assay: specificity against other proteases (statement); assay type: biochemical; conditions: no inhibitory effect or some activity only against proteases whose locus of action is avoidable
[2] = solubility in organic solvents; conditions: methanol, ethanol, isopropanol, ethyl acetate, chloroform, dimethylformamide, benzene, diethyl ether, dimethyl sulfoxide
[3] = cytotoxic and other side effects (statement)

Which “HIV protease inhibition (general statement in words)” value (HIV protease) does the source give for `C=C1C(C)C2C(Cc3ccccc3)NC(=O)C23C(OC(C)=O)/C=C/C(C)CC(C)C/C=C/C3C1O` (stereo not shown) [Compound I] here?
Its value is “very effective HIV protease inhibitor”.

And the IC50 (HIV protease)?
The IC50 was ~6.28 µM.

And the Disintegrations/Minute (HIV protease; Compound I 2.1 μM)?
Its Disintegrations/Minute is 3862 Disintegrations/Minute.

And the inhibition at 2.1 µM (HIV protease; Compound I 2.1 μM, protease 2.0 nM, 37° C., 60 minutes, read-out: Percent Inhibition)?
The inhibition at 2.1 µM was 15%.

What about the Disintegrations/Minute (HIV protease; Compound I 6.3 μM) of the same compound?
The Disintegrations/Minute was 2309 Disintegrations/Minute.

What about the inhibition at 6.3 µM (HIV protease; Compound I 6.3 μM, protease 2.0 nM, 37° C., 60 minutes, read-out: Percent Inhibition) of the same compound?
The inhibition at 6.3 µM was 51%.

What about the Disintegrations/Minute (HIV protease; Compound I 21 μM) of the same compound?
Its Disintegrations/Minute is 1139 Disintegrations/Minute.

What about the inhibition at 21 µM (stock) (HIV protease; Compound I 21 μM, protease 2.0 nM, 37° C., 60 minutes, read-out: Percent Inhibition) of the same compound?
Its inhibition at 21 µM (stock) is 79%.

And the Disintegrations/Minute (HIV protease; Compound I 63 μM)?
Its Disintegrations/Minute is 550 Disintegrations/Minute.

What about the inhibition at 63 µM (HIV protease; Compound I 63 μM, protease 2.0 nM, 37° C., 60 minutes, read-out: Percent Inhibition) of the same compound?
The inhibition at 63 µM was 93%.

What about the Disintegrations/Minute (HIV protease; Compound I 210 μM) of the same compound?
The Disintegrations/Minute was 402 Disintegrations/Minute.

And the inhibition at 210 µM (HIV protease; Compound I 210 μM, protease 2.0 nM, 37° C., 60 minutes, read-out: Percent Inhibition)?
The inhibition at 210 µM was 96%.

What about the Disintegrations/Minute (HIV protease; Compound I .63 μM) of the same compound?
The Disintegrations/Minute was 5265 Disintegrations/Minute.

What about the inhibition at 0.63 µM (stock) (HIV protease; Compound I .63 μM, protease 2.0 nM, 37° C., 60 minutes, read-out: Percent Inhibition) of the same compound?
Its inhibition at 0.63 µM (stock) is -18%.

What about the “inhibition of HIV protease (in words)” value (HIV protease; concentration of Compound I about 63 μm or greater) of the same compound?
The value was “very high degree to substantially complete inhibition”.

And the “activity in an assay for platelet activating factor” value [1]?
Its value is “some activity”.

And the specificity among proteases (proteases)?
Its specificity among proteases is “highly specific having no inhibitory effect or showing some activity only against proteases whose locus of action is avoidable”.

And the “solubility in organic solvents” value [2]?
Its value is “soluble in organic solvents”.

And the “undesirable cytotoxic and other side effects” value [3]?
Its value is “substantially free of undesirable cytotoxic and other side effects”.
